Assay results: patent US5688936A, “Vesicle membrane transport proteins” (priority 1993, dated 1997)
Where two headings read alike, the source gives them in different places.

Assays:
[1] = molecular target: T1, chromaffin granule amine transport protein (Rattus norvegicus, UniProt Q01818); assay: Quantitative [3H]dopamine transport assay with mpp^res CHO cell homogenate; format: biochemical; conditions: for rank order for affinity of substrates: quantitative assay
T1 sequence (Q01818 1-521): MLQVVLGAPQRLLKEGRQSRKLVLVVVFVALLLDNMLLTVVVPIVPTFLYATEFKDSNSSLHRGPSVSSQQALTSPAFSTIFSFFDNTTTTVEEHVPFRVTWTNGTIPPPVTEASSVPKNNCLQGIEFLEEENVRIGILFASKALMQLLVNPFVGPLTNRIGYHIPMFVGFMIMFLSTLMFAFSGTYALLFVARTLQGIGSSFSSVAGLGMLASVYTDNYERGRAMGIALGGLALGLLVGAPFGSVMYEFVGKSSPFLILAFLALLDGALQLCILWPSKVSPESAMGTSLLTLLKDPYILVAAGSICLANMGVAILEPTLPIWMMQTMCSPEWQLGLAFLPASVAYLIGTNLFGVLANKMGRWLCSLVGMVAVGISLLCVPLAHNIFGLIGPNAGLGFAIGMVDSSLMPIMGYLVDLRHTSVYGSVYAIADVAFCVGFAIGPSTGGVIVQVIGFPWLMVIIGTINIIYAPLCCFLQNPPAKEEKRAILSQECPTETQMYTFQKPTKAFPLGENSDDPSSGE
Procedure: The quantity of label bound is measured after filtration of the assay mixture. Preferably, the label is a radioactive label. […] This can be done by standard graphic kinetic techniques such as the Lineweaver-Burke plot.
Incubation was performed at 29° C. for the time period indicated (from 2 minutes to 30 minutes). The assay was terminated by dilution in cold assay buffer followed by filtration through 0.2 μm Supor™ 200 membranes (Gelman, Ann Arbor, Mich.) and the bound radioactivity was measured. The cells used for the quantitative assay are selected in MPP^+ or screened with antibody to ensure that they express the transporter at high levels, as it is difficult to measure activity in this assay at low levels of transporter expression.
The quantitative transport test was performed as described above on wild-type CHO cells and mpp^res CHO cells.

[2] = molecular target: T1, chromaffin granule amine transport protein; assay: cell-based; format: cell-based; conditions: for Dopamine Fluorescence (mpp^res CHO): untreated control ++++, 12 hour dopamine loading; for inhibition of vesicular amine uptake/transport (fluorescence assay, in words): concentrations of Table 1
Procedure: Uptake and cellular compartmentalization of loaded dopamine were performed by growing cells on poly-lysine-coated glass coverslips. […] The cells were then washed three times in 0.1M sodium phosphate, pH 7.4, and incubated at 4° C. in 2% glyoxylic acid/0.5 mg% MgCl2, pH 4.9-5.0 for three minutes as described by de la Torre, J. Neurosci. Meth. 3:1-5 (1980). Briefly, excess solution is wiped off the bottom and edges of the slide using absorbent paper, taking care not to touch the section. The coverslips were then drained thoroughly, dried in air at 45° C. heated to 80° C. for five minutes, inverted over mineral oil on glass slides and examined under fluorescence using the appropriate filters as described by Knigge et al., Brain Res. 120:393-405 (1977). Briefly, the preparations were infiltrated with warm immersion oil and examined in a Leitz MPV2 microspectrofluorometer equipped with Schoffel excitation and emission grating monochromators, photomultipliers, and ratio computing circuitry. Cells were scanned with either monochromatic light (370 nm) or narrow band excitation (S405, BG3) light for the purpose of identifying fluorescence within cells. Ploem illumination was used in combination with a X 63 or X 100 oil immersion objective.
Dopamine-loaded fluorescence was carried out as described in Example 1. […] Glyoxylic-acid-induced fluorescence was used to determine the intracellular distribution as described above in Example 1. The procedures were the same as described in Example 1 however a pure cDNA clone encoding the vesicle membrane transport protein, selected in the presence of MPP^+, obtained as described herein, was used rather than the primary transformant. […]
The effects of various pharmacologic agents were tested to determine whether the properties of the protein encoded by the mpp^res cDNA corresponded with those expected for the chromaffin granule amine transport protein. […] The cells were pre-incubated in Krebs-Ringer buffer containing 1 μM pargyline and the dose of the drug indicated for 15 minutes. 25 nM [^3 H]-dopamine was then added in the same buffer and after incubation at 37° C. for one hour, the cells were washed in cold Krebs-Ringer buffer, lysed and counted in Ecolite (ICN) as described by Greene and Rein, Brain Res. 129:247-263 (1978). Values were determined from three separate wells and the mean was expressed as percent of control uptake±standard deviation. […] The dose required to inhibit maximal uptake by 50%, Ki, was estimated from the fluorescence data using a range of concentrations for each agent.

PC12 cells [3] = assay: cells; conditions: Rattus norvegicus, PC-12, 1 h, read-out: [^3 H]-Dopamine Uptake (PC12)
Procedure: The effects of various pharmacologic agents were tested to determine whether the properties of the protein encoded by the mpp^res cDNA corresponded with those expected for the chromaffin granule amine transport protein. […] The cells were pre-incubated in Krebs-Ringer buffer containing 1 μM pargyline and the dose of the drug indicated for 15 minutes. […] Values were determined from three separate wells and the mean was expressed as percent of control uptake±standard deviation.

wild-type CHO cells = assay: MTT cytotoxicity assay in wild-type CHO cells; format: cell-based, Chinese hamster; conditions: wild-type CHO, 2-3 days
Procedure: (§1) Differential susceptibility to the respiratory complex I inhibitors MPP^+ and rotenone was shown by measuring toxicity by measuring general cell dehydrogenase activity with reduction of a tetrazolium dye (MTT) in a spectrophotometric plate assay as described by Hansen et al., J. Immunol. Methods 119:203-210 (1989). Briefly, a stock solution of MTT (3,(4,5-dimethylthiazol-2-yl)2,5-diphenyltetrazolium bromide) was dissolved at a concentration of 5 mg/ml in sterile phosphate buffered saline at room temperature. To each well was added 25 μl of the stock solution. After two hours of incubation at 37° C., 100 μl of extraction buffer (20% w/v of SDS in a solution of 50% each dimethylformamide and demineralized water with the pH adjusted to 4.7 with acetic acid and HCl). After an overnight incubation at 37° C., the optical densities at 570 nm were measured using a multiscanner, employing the extraction buffer as the blank. This assay was carried out in triplicate on 96-well plates (NUNC, Denmark). MPP^+ and rotenone at the concentrations indicated in FIG. 6a and 6b, respectively, was added to wild-type and MPP^+ -resistant CHO cells at approximately 50% confluence, and toxicity was assayed after 2-3 days by measuring general cell dehydrogenase activity with the reduction of the tetrazolium dye MTT (3,(4,5-dimethylthiazol-2-yl)2,5-diphenyl-tetrazolium bromide). After addition of the dye at a final concentration of 1 mg/ml, the cells were incubated for two hours at 37° C. and the formazan product was solubilized in 10% sodium dodecyl sulfate (SDS). The plates were maintained at 37° C. for an additional twenty hours and the optical density was determined in an ELISA plate reader at a test wavelength of 570 nm, a reference wavelength of 630 nm and a calibration setting of 1.99. All determinations were performed in triplicate and expressed as the mean, with the error bars representing standard deviation (FIG. 6a and 6b).

PC12 cells [4] = conditions: cited from earlier work
transfected CHO cells = assay: Survival/selection/growth of transfected CHO cells in MPP+; format: cell-based, Chinese hamster
Procedure: Using the above methods, the PC12 cDNA library constructed in the plasmid expression vector CDM8 was transfected into CHO cells. Using the selectable marker RSV- neo (Walker, Weizmann Institute, Israel), […] independent stable transformants were obtained after selection in the neomycin analogue G418 at 400 μg/ml effective dose. These cells were then selected at 40% confluence in 1 mM MPP^+. […] However, at four weeks, a colony of cells without refractile inclusions appeared and rapidly covered the plate. The apparently normal growth of these cells in the presence of 1 mM MPP^+ stands in marked contrast to all of the resistant clones obtained without transfection, which grew very slowly if at all. […] However, at 1 mM MPP^+, the resistant cells did show some toxicity, particularly when the assay was performed at higher cell density.
To identify the cDNA sequences responsible for conferring resistance to MPP^+, integrated plasmids were rescued from the primary CHO transformant obtained as described above in Example 1. […] The primary MPP^+ -resistant CHO transformant was amplified in culture and following cell lysis in 5M guanidinium isothiocyanate, the high molecular weight DNA prepared by repeated precipitation in isopropanol. After digestion with Not I, which cleaves the CDM8 vector once downstream of the cDNA insertion site as well as at rare eight-nucleotide recognition sites elsewhere in the genome, the DNA was religated and transformed into E. coli by electroporation as described by Stern-Bach et al., J. Biol. Chem. 265:3961-3966 (1990). Four pools of the derived plasmids containing approximately 50 colonies each were transfected into CHO cells and after two days were selected in 1 mM MPP^+. Four weeks later, one pool gave rise to several MPP^+ -resistant colonies, two pools gave rise to 1-2 colonies and the fourth pool and CDM8 vector gave rise to no healthy, resistant colonies. Restriction enzyme analysis of the plasmids in the pool conferring the highest frequency of resistance to MPP^+ indicated three independent clones of 1.0, 1.3 and 2.5 kb. […]

chromaffin cells = conditions: [3H]-MPP+ accumulated; cited from earlier work
[5] = system: MPP^+ -resistant CHO cells; assay: MTT cytotoxicity assay in MPP+-resistant transfected CHO cells; format: cell-based, Chinese hamster
Procedure: as §1
To determine whether an alteration in the process of respiration was responsible for the resistance to MPP^+, the effects of other known respiratory inhibitors were examined. […] Thus, if the resistance were due to a change in the site of action, the transfected cells should also show resistance to rotenone. […] However, rotenone is considered to have its selected effect on respiration at relatively low doses, and an additional, less specific effect at higher doses.
Therefore, the toxicity of MPP^+ to transfected cells in the presence of 1 μM reserpine was examined.

Untransfected CHO cells = assay: Survival/selection of untransfected CHO cells in MPP+; format: cell-based, Chinese hamster; conditions: 500 μM
Procedure: To determine whether the transfer of DNA sequences from PC12 cells into CHO cells could be used to generate stable CHO transformants resistant to MPP^+, it was first necessary to determine the spontaneous rate of resistance under different culture conditions. […] Selection of one million CHO cells at intermediate density (25-50% confluence) in 500 μM MPP^+ gave rise to 5-10 small colonies after one month. However, these cells contained particulate inclusions characteristic of MPP^+ toxicity, and grew very slowly even when maintained at low density. At moderate density, the cells degenerated further and detached from the plate.

CHO cells = assay: Inhibition of protein synthesis in CHO cells by MPP+

**Q.** For CNC[C@H](O)c1ccc(O)c(O)c1 [epinephrine], which “rank order for affinity of substrates” value [1] is on record?
**A.** The value was “serotonin>epinephrine>dopamine>norepinephrine”.

**Q.** With N#CC(C#N)=NNc1cccc(Cl)c1 [carbonyl cyanide m-chlorophenylhydrazone] as the molecule, how does the “dopamine incorporation by mpp^res cells” value ([1]; 5 μM) read?
**A.** The value was “blocked”.

**Q.** What does the source list for CCN(CC)CCCC(C)Nc1ccnc2cc(Cl)ccc12 (stereo not drawn) [chloroquine]?
**A.** Dopamine Fluorescence (mpp^res CHO) ([2]; agent 500 μM): 0; inhibition of vesicular amine uptake/transport (fluorescence assay, in words) [2]: inhibited vesicular amine uptake; activity at 500 µM (PC12 cells [3]): 17 ± 1%

**Q.** For C[n+]1ccc(-c2ccccc2)cc1 [MPP^+, 1-methyl-4-phenylpyridinium], which “MPP+ toxicity (MTT assay)” value (wild-type CHO cells) is on record?
**A.** The value was “steep dose-response curve”.

**Q.** And the PC12 cell death (PC12 cells [4]; 100 μM)?
**A.** The PC12 cell death was “death by two weeks”.

**Q.** What about the PC12 cell death (PC12 cells [4]; 1 mM) of the same molecule?
**A.** Its PC12 cell death is “cell death by four days”.

**Q.** What about the “toxicity in library-transfected CHO cells” value (transfected CHO cells; 1 mM, 40% confluence) of the same molecule?
**A.** Its value is “Virtually all of the cells developed toxicity within one week”.

**Q.** And the “growth of the resistant clone in MPP+” value (transfected CHO cells; vs untreated wild-type cells, particularly at higher densities)?
**A.** The value was “slightly more slowly”.

**Q.** What about the “toxicity to chromaffin cells” value (chromaffin cells) of the same molecule?
**A.** The value was “relatively little toxicity”.

**Q.** And the “MPP+ toxicity (MTT assay)” value ([5]; resistant cells, 1 mM, particularly at higher cell density)?
**A.** Its value is “some toxicity”.

**Q.** What about the “MPP+ toxicity (MTT assay)” value ([5]; resistant clone, 2-3 days) of the same molecule?
**A.** The value was “relative lack of toxicity”.

**Q.** What about the “number of resistant colonies from one million CHO cells” value (Untransfected CHO cells; 25-50% confluence, after one month) of the same molecule?
**A.** The value was 5-10 small colonies.

**Q.** And the “cell survival in MPP+” value (Untransfected CHO cells; high density (more than 75% confluence))?
**A.** The value was “all of the cells died within 24 hours”.

**Q.** What about the “cell survival in MPP+” value (Untransfected CHO cells; low density (less than 25% confluence)) of the same molecule?
**A.** Its value is “the cells stopped growing, gradually acquiring refractile cytoplasmic inclusions, swelling and eventually detaching from the plate after several weeks”.

**Q.** What about the “acquired resistance of untransfected CHO cells” value (Untransfected CHO cells; selection for over two months) of the same molecule?
**A.** Its value is “little resistance”.

**Q.** And the “sensitivity of CHO cells to MPP+ relative to PC12 cells” value (CHO cells)?
**A.** Its value is “greater sensitivity to MPP^+ than PC12 cells”.

**Q.** What about the “inhibition of protein synthesis” value (CHO cells; over 100 μM, 2-3 days, high density CHO cells) of the same molecule?
**A.** The value was “virtually complete inhibition of protein synthesis”.

**Q.** Which Ki ([2]; dose required to inhibit maximal uptake by 50%, estimated from fluorescence data, read-out: Ki (est)) does the source give for CNCCCN1c2ccccc2CCc2ccccc21 [desipramine] here?
**A.** Its Ki is 500 µM.

**Q.** With NC[C@H](O)c1ccc(O)c(O)c1 [norepinephrine] as the molecule, how does the “rank order for affinity of substrates” value [1] read?
**A.** The value was “serotonin>epinephrine>dopamine>norepinephrine”.

**Q.** With NCCc1ccc(O)c(O)c1 [dopamine] as the molecule, how does the “rank order for affinity of substrates” value [1] read?
**A.** The value was “serotonin>epinephrine>dopamine>norepinephrine”.

**Q.** What does the source list for COc1ccc(CCN(C)CCCC(C#N)(c2ccc(OC)c(OC)c2)C(C)C)cc1OC (stereo not drawn) [verapamil]?
**A.** Ki [2]: 50 µM; Dopamine Fluorescence (mpp^res CHO) ([2]; agent 100 μM): 0; inhibition of vesicular amine uptake/transport (fluorescence assay, in words) [2]: inhibited transport, but at high concentrations; activity at 100 µM (PC12 cells [3]): 21 ± 1%

**Q.** Which “rank order for affinity of substrates” value [1] does the source give for NCCc1c[nH]c2ccc(O)cc12 [serotonin] here?
**A.** The value was “serotonin>epinephrine>dopamine>norepinephrine”.
